By Kd is commonly meant the equilibrium constant for the complex coming apart.

The target in this assay is T1, Recombinant human GhR-Fc protein (Homo sapiens, UniProt P10912).
T1 construct: purchased R&D Systems
Description: SPR binding assay (Biacore T200, single-cycle kinetics) of peptides against immobilized human GhR-Fc. On the procedure:
SPR assay was performed using Biacore T200 (cytiva: Former GE Healthcare). After the equilibration of Series S Sensor Chip CM5 (produced by cytiva: Former GE Healthcare) with Running Buffer (HBS-EP with 1% (v/v) DMSO), an EDC/NHS mixture was injected at a flow rate of 10 μL/min for 7 minutes to thereby activate the functional groups on sensor chip. Recombinant human GhR-Fc protein (R&D Systems) in 10 mM Acetate (pH 4.0) was injected immobilized to at a flow rate of 5 μL/min. It took 7 minutes to immobilize the GhR on the substrate surfaces of the sensor chip. Then Ethanolamine was injected at a flow rate of 10 μL/min for 7 minutes. 1M Ethanolamine (aq.) was injected at a flow rate of 10 μL/min for 420 seconds for capping.
Using these Peptide Samples, kinetics of peptides against human GhR-Fc protein were measured. The method adopted for sample measurement was a single-cycle kinetics method. The analysis was conducted using the evaluation software provided with Biacore T200. A DMSO correction curve obtained by solvent correction measurements was applied for the analysis. Kinetics fitting was done on the difference data obtained by subtracting the baseline data from sample measurement data. KD values were calculated based on the association rate constant (ka) and dissociation rate constant (kd). […]

Setting [1] is: SPR, hGhR, Table 2 monocyclic peptides, KD calculated from ka and kd, read-out: KD.

Where two headings read alike, the source gives them in different places. Starred links: 1 amine or outer side, 2 acyl side, 3 side chain; linkers in the order of their positions; H or OH if unused. Positions of bridges follow the written chain, without caps; N, C: chain ends. Non-standard residues stand in square brackets, D forms with d. Residues, ends and D or L forms follow the SMILES beside them. Groups on a side chain read outwards from the residue. *: point of attachment. X10 = NC(=O)[C@H](CCCCN*)NC(=O)CC[C@H](NC(=O)CC[C@H](NC(=O)CCCc1ccc(I)cc1)C(=O)O)C(=O)O; Trp(1-CH2CO) = O=C([C@H](Cc1cn(CC(=O)[*:3])c2ccccc12)N[*:1])[*:2]; Trp(5-OMe) = COc1ccc2[nH]cc(C[C@H](N)C(=O)O)c2c1; Butanoyl(4-(4-I-phenyl)) = O=C(CCCc1ccc(I)cc1)*; Trp(5-OH) = N[C@@H](Cc1c[nH]c2ccc(O)cc12)C(=O)O; Phe(4-COOH) = N[C@@H](Cc1ccc(C(=O)O)cc1)C(=O)O; Piperazinyl(4-CH2COOH) = O=C(O)CN1CCN(*)CC1; X7 = O=C(O)CN1CCC(N[*:1])(C(=O)[*:2])CC1; γGlu = O=C(O)[C@H](CCC(=O)[*:2])N[*:1]; Hexanoyl(6-Ph) = O=C(CCCCCc1ccccc1)*; X9 = O=C(CCCc1ccc(-c2ccccc2)cc1)*; 4Pal = N[C@@H](Cc1ccncc1)C(=O)O; NMeK = CN[C@@H](CCCCN)C(=O)O; Aib = CC(C)(N)C(=O)O; CO = O=C([*:1])[*:2]

T1 sequence (P10912 with tags, fused parts or gaps limits assumed): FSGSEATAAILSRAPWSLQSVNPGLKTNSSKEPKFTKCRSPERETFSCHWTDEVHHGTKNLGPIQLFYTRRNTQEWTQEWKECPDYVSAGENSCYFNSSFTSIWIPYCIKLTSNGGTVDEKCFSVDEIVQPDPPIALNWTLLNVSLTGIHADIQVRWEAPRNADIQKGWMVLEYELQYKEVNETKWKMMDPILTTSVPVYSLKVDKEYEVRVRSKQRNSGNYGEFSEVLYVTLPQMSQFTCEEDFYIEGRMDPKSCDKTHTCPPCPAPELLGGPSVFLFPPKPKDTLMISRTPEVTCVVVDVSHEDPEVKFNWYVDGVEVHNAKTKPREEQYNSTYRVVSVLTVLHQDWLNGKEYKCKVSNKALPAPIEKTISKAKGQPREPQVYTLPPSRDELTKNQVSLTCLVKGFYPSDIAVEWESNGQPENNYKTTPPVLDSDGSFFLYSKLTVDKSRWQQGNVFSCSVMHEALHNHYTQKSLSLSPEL

Consider `CC(C)[C@@H]1NC(=O)[C@H](C(C)C)NC(=O)[C@@H]2CCCCNC(=O)Cn3cc(c4ccccc43)C[C@H](NC(=O)[C@H](CC(N)=O)NC(=O)[C@H](CO)NC1=O)C(=O)N[C@@H](Cc1ccc(O)cc1)C(=O)N[C@@H](CCCCN)C(=O)N[C@@H](Cc1c[nH]c3ccc(O)cc13)C(=O)NC(C)(C)C(=O)N[C@@H](C(C)C)C(=O)N[C@H](C(=O)NCCCC[C@H](NC(=O)CC[C@H](NC(=O)CC[C@H](NC(=O)CCCc1ccc(I)cc1)C(=O)O)C(=O)O)C(N)=O)CSCC(=O)N[C@@H](Cc1ccc(O)cc1)C(=O)N2C` [Compound 32] ({CH2CO}-Y[NMeK]VVSN[Trp(1-CH2CO)]YK[Trp(5-OH)][Aib]VC-X10; lactam 2-7; thioether N-13), for which the Kd (SPR, hGhR, Table 1 bicyclic peptides, KD calculated from ka and kd, read-out: KD) was 0.98 nM.

Take `COc1ccc2[nH]cc(C[C@@H]3NC(=O)[C@H](CC(N)=O)NC(=O)[C@H](CO)NC(=O)[C@H](C(C)C)NC(=O)[C@H](C(C)C)NC(=O)[C@H](CCCCNC(=O)CC[C@H](NC(=O)CCCc4ccc(I)cc4)C(=O)O)N(C)C(=O)[C@H](Cc4ccncc4)NC(=O)CSC[C@@H](C(N)=O)NC(=O)[C@H](C(C)C)NC(=O)C(C)(C)NC(=O)[C@H](Cc4c[nH]c5ccc(O)cc45)NC(=O)[C@H](CCCCN)NC(=O)[C@H](Cc4ccc(C(=O)O)cc4)NC3=O)c2c1` [Compound 34] ({CH2CO}-[4Pal][NMeK]([γGlu-Butanoyl(4-(4-I-phenyl))])VVSN[Trp(5-OMe)][Phe(4-COOH)]K[Trp(5-OH)][Aib]VC-NH2; thioether N-13): the Kd under setting [1] was 2.77 nM.

With `COc1ccc2[nH]cc(C[C@@H]3NC(=O)[C@H](CC(N)=O)NC(=O)[C@H](CO)NC(=O)[C@H](C(C)C)NC(=O)[C@H](C(C)C)NC(=O)[C@H](CCCCNC(=O)CC[C@H](NC(=O)CCCc4ccc(I)cc4)C(=O)O)N(C)C(=O)[C@H](Cc4ccc(C(=O)O)cc4)NC(=O)CSC[C@@H](C(N)=O)NC(=O)[C@H](C(C)C)NC(=O)C(C)(C)NC(=O)[C@H](Cc4c[nH]c5ccc(O)cc45)NC(=O)[C@H](CCCCNC(=O)N4CCN(CC(=O)O)CC4)NC(=O)[C@H](Cc4ccc(C(=O)O)cc4)NC3=O)c2c1` [Compound 35] ({CH2CO}-[Phe(4-COOH)][NMeK]([γGlu-Butanoyl(4-(4-I-phenyl))])VVSN[Trp(5-OMe)][Phe(4-COOH)]K([CO-Piperazinyl(4-CH2COOH)])[Trp(5-OH)][Aib]VC-NH2; thioether N-13), under setting [1], the Kd is 5.47 nM.

As to `COc1ccc2[nH]cc(C[C@@H]3NC(=O)[C@H](CC(N)=O)NC(=O)[C@H](CO)NC(=O)[C@H](C(C)C)NC(=O)[C@H](C(C)C)NC(=O)[C@H](CCCCNC(=O)CC[C@H](NC(=O)CCCc4ccc(I)cc4)C(=O)O)N(C)C(=O)[C@H](Cc4ccc(C(=O)O)cc4)NC(=O)CSC[C@@H](C(N)=O)NC(=O)[C@H](C(C)C)NC(=O)C4(CCN(CC(=O)O)CC4)NC(=O)[C@H](Cc4c[nH]c5ccc(O)cc45)NC(=O)[C@H](CCCCN)NC(=O)[C@H](Cc4ccc(C(=O)O)cc4)NC3=O)c2c1` [Compound 36] ({CH2CO}-[Phe(4-COOH)][NMeK]([γGlu-Butanoyl(4-(4-I-phenyl))])VVSN[Trp(5-OMe)][Phe(4-COOH)]K[Trp(5-OH)][X7]VC-NH2; thioether N-13), under setting [1], the Kd is 10.8 nM.

For `COc1ccc2[nH]cc(C[C@@H]3NC(=O)[C@H](CC(N)=O)NC(=O)[C@H](CO)NC(=O)[C@H](C(C)C)NC(=O)[C@H](C(C)C)NC(=O)[C@H](CCCCNC(=O)CC[C@H](NC(=O)CCCc4ccc(-c5ccccc5)cc4)C(=O)O)N(C)C(=O)[C@H](Cc4ccc(C(=O)O)cc4)NC(=O)CSC[C@@H](C(N)=O)NC(=O)[C@H](C(C)C)NC(=O)C4(CCN(CC(=O)O)CC4)NC(=O)[C@H](Cc4c[nH]c5ccc(O)cc45)NC(=O)[C@H](CCCCN)NC(=O)[C@H](Cc4ccc(C(=O)O)cc4)NC3=O)c2c1` [Compound 37] ({CH2CO}-[Phe(4-COOH)][NMeK]([γGlu-X9])VVSN[Trp(5-OMe)][Phe(4-COOH)]K[Trp(5-OH)][X7]VC-NH2; thioether N-13), the Kd was 5.81 nM.

Regarding `COc1ccc2[nH]cc(C[C@@H]3NC(=O)[C@H](CC(N)=O)NC(=O)[C@H](CO)NC(=O)[C@H](C(C)C)NC(=O)[C@H](C(C)C)NC(=O)[C@H](CCCCNC(=O)CC[C@H](NC(=O)CCCCCc4ccccc4)C(=O)O)N(C)C(=O)[C@H](Cc4ccc(C(=O)O)cc4)NC(=O)CSC[C@@H](C(N)=O)NC(=O)[C@H](C(C)C)NC(=O)C4(CCN(CC(=O)O)CC4)NC(=O)[C@H](Cc4c[nH]c5ccc(O)cc45)NC(=O)[C@H](CCCCN)NC(=O)[C@H](Cc4ccc(C(=O)O)cc4)NC3=O)c2c1` [Compound 38] ({CH2CO}-[Phe(4-COOH)][NMeK]([γGlu-Hexanoyl(6-Ph)])VVSN[Trp(5-OMe)][Phe(4-COOH)]K[Trp(5-OH)][X7]VC-NH2; thioether N-13), under setting [1], the Kd is 2.82 nM.

Turning to `COc1ccc2[nH]cc(C[C@@H]3NC(=O)[C@H](CC(N)=O)NC(=O)[C@H](CO)NC(=O)[C@H](C(C)C)NC(=O)[C@H](C(C)C)NC(=O)[C@H](CCCCNC(=O)CC[C@H](NC(=O)CCCc4ccc(I)cc4)C(=O)O)N(C)C(=O)[C@H](Cc4ccc(C(=O)O)cc4)NC(=O)CSC[C@@H](C(N)=O)NC(=O)[C@H](C(C)C)NC(=O)C(C)(C)NC(=O)[C@H](Cc4c[nH]c5ccc(O)cc45)NC(=O)[C@H](CCCCN)NC(=O)[C@H](Cc4ccc(C(=O)O)cc4)NC3=O)c2c1` [Compound 39] ({CH2CO}-[Phe(4-COOH)][NMeK]([γGlu-Butanoyl(4-(4-I-phenyl))])VVSN[Trp(5-OMe)][Phe(4-COOH)]K[Trp(5-OH)][Aib]VC-NH2; thioether N-13), the Kd under setting [1] was 2.19 nM.

As for `COc1ccc2[nH]cc(C[C@@H]3NC(=O)[C@H](CC(N)=O)NC(=O)[C@H](CO)NC(=O)[C@H](C(C)C)NC(=O)[C@H](C(C)C)NC(=O)[C@H](CCCCNC(=O)CC[C@H](NC(=O)CC[C@H](NC(=O)CCCc4ccc(I)cc4)C(=O)O)C(=O)O)N(C)C(=O)[C@H](Cc4ccc(C(=O)O)cc4)NC(=O)CSC[C@@H](C(N)=O)NC(=O)[C@H](C(C)C)NC(=O)C(C)(C)NC(=O)[C@H](Cc4c[nH]c5ccc(O)cc45)NC(=O)[C@H](CCCCN)NC(=O)[C@H](Cc4ccc(C(=O)O)cc4)NC3=O)c2c1` [Compound 40] ({CH2CO}-[Phe(4-COOH)][NMeK]([γGlu-γGlu-Butanoyl(4-(4-I-phenyl))])VVSN[Trp(5-OMe)][Phe(4-COOH)]K[Trp(5-OH)][Aib]VC-NH2; thioether N-13), the Kd under setting [1] was 2.96 nM.

With `COc1ccc2[nH]cc(C[C@@H]3NC(=O)[C@H](CC(N)=O)NC(=O)[C@H](CO)NC(=O)[C@H](C(C)C)NC(=O)[C@H](C(C)C)NC(=O)[C@H](CCCCNC(=O)CC[C@H](NC(=O)CCCc4ccc(I)cc4)C(=O)O)N(C)C(=O)[C@H](Cc4ccc(C(=O)O)cc4)NC(=O)CSC[C@@H](C(=O)NCC(=O)N4CCC[C@H]4C(=O)N[C@H](CO)C(=O)N[C@H](CO)C(=O)N[C@H](CO)C(N)=O)NC(=O)[C@H](C(C)C)NC(=O)C(C)(C)NC(=O)[C@H](Cc4c[nH]c5ccc(O)cc45)NC(=O)[C@H](CCCCN)NC(=O)[C@H](Cc4ccc(C(=O)O)cc4)NC3=O)c2c1` [Compound 41] ({CH2CO}-[Phe(4-COOH)][NMeK]([γGlu-Butanoyl(4-(4-I-phenyl))])VVSN[Trp(5-OMe)][Phe(4-COOH)]K[Trp(5-OH)][Aib]VCGP[dS][dS][dS]-NH2; thioether N-13), under setting [1], the Kd is 2.63 nM.

In the case of `COc1ccc2[nH]cc(C[C@@H]3NC(=O)[C@H](CC(N)=O)NC(=O)[C@H](CO)NC(=O)[C@H](C(C)C)NC(=O)[C@H](C(C)C)NC(=O)[C@H](CCCCNC(=O)CC[C@H](NC(=O)CC[C@H](NC(=O)CCCc4ccc(I)cc4)C(=O)O)C(=O)O)N(C)C(=O)[C@H](Cc4ccc(C(=O)O)cc4)NC(=O)CSC[C@@H](C(=O)NCC(=O)N4CCC[C@H]4C(=O)N[C@H](CO)C(=O)N[C@H](CO)C(=O)N[C@H](CO)C(N)=O)NC(=O)[C@H](C(C)C)NC(=O)C(C)(C)NC(=O)[C@H](Cc4c[nH]c5ccc(O)cc45)NC(=O)[C@H](CCCCN)NC(=O)[C@H](Cc4ccc(C(=O)O)cc4)NC3=O)c2c1` [Compound 42] ({CH2CO}-[Phe(4-COOH)][NMeK]([γGlu-γGlu-Butanoyl(4-(4-I-phenyl))])VVSN[Trp(5-OMe)][Phe(4-COOH)]K[Trp(5-OH)][Aib]VCGP[dS][dS][dS]-NH2; thioether N-13), the Kd under setting [1] was 3.79 nM.

With `COc1ccc2[nH]cc(C[C@@H]3NC(=O)[C@H](CC(N)=O)NC(=O)[C@H](CO)NC(=O)[C@H](C(C)C)NC(=O)[C@H](C(C)C)NC(=O)[C@H](CCCCNC(=O)CC[C@H](NC(=O)CCCc4ccc(I)cc4)C(=O)O)N(C)C(=O)[C@H](Cc4ccc(O)cc4)NC(=O)CSC[C@@H](C(N)=O)NC(=O)[C@H](C(C)C)NC(=O)C(C)(C)NC(=O)[C@H](Cc4c[nH]c5ccc(O)cc45)NC(=O)[C@H](CCCCNC(=O)N4CCN(CC(=O)O)CC4)NC(=O)[C@H](Cc4ccc(O)cc4)NC3=O)c2c1` [Compound 44] ({CH2CO}-Y[NMeK]([γGlu-Butanoyl(4-(4-I-phenyl))])VVSN[Trp(5-OMe)]YK([CO-Piperazinyl(4-CH2COOH)])[Trp(5-OH)][Aib]VC-NH2; thioether N-13), the dissociation constant (Kd) under setting [1] is 9.67 nM.

The record behind these values is US12415834B2, “GhR-binding peptide and composition comprising same” (priority 2021, dated 2025).
